In patent US7962290B1, “Identification of pharmacophores from co-crystals of spleen tyrosine kinase (SYK) and SYK ligands” (Rigel Pharmaceuticals, Inc., priority 2006, dated 2011):

Assay: Precipitation of ligand in crystal soaking solution
Type: physicochemical
Experimental: The pooled fractions were dialyzed against 300 mM NaCl, 10 mM Hepes pH 7.5, 5 mM DTT overnight at 4° C. then concentrated to 10.9 mg/mL in a Vivaspin centrifugal concentrator (MWCO=10 kDa). Crystals were obtained at 20° C. in sitting drop plates using 1 μl of protein and 1 μl of crystallant (20% PEG 3000, 100 mM Citrate pH 5.5) equilibrated against 200 μl of crystallant in the reservoir. Plate-shaped crystals were observed after approximately 24 hours. A single crystal was transferred from the crystallization drop to a plate containing crystallant and 11.5 mM Cpd. No. 1. The crystal was soaked for 22.5 hours in this solution. […] The crystal was transferred to a cryoprotectant containing 20% PEG 3000, 100 mM Citrate pH 5:5, 15% glycerol then plunge frozen into liquid nitrogen for X-ray diffraction analysis.
The pooled fractions were dialyzed against 300 mM NaCl, 10 mM Hepes pH 7.5, 5 mM DTT, 10% glycerol overnight at 4° C. then concentrated to 10.0 mg/mL in a Vivaspin centrifugal concentrator (MWCO=10 kDa). Crystals were obtained at 20° C. in sitting drop plates using 1 μl of protein and 1 μl of crystallant (20% PEG 3000, 100 mM Citrate pH 5.5) equilibrated against 200 μl of crystallant in the reservoir. Plate-shaped crystals were observed after approximately 24 hours. […]

SMILES | precipitation at the end of the soak (crystallant (20% PEG 3000, 100 mM Citrate pH 5.5) with 11.5 mM compound, 22.5 hours) | concentration of the ligand in solution (soak solution 30% PEG 3000, 50 mM Citrate pH 5.5, 5% DMSO, 2.4 mM added, 23.5 hours, some precipitation observed)
Oc1cccc(Nc2ncc(F)c(Nc3cccc(O)c3)n2)c1 [Cpd. No. 1] | Some precipitation | –
COc1cc(Nc2ncc(F)c(Nc3ccc4c(n3)NC(=O)C(C)(C)O4)n2)cc(OC)c1OC [Cpd. No. 3] | – | less than 2.4 mM
